# Laboratory results taken from patent US8293764B2, “Compositions and methods for disruption of BRCA2-Rad51 interaction” (The Regents of the University of California, priority 2004, dated 2012).
# Tests used:
# Type in all cases: cell-based
# [1] = tested on: MCF-7 cells; assay: Cell cycle analysis by flow cytometry (FACS); conditions: 20 μM IBR2, time-dependent
# Procedure: To explore the mechanism of how IBR2 inhibits cancer cell growth, the inventors analyzed cell cycle progression of IBR2 treated MCF-7 cells by flow cytometry (FACS).
# Cell cycle analysis by flow cytometry: To analyze cell cycle distribution, […] MCF-7 cells were seeded in 10-cm dishes for 24 hours and treated with […] IBR2 for various times. Cells were then trypsinized and fixed with 70% ethanol (−20° C.) and stained for 30 minutes with propidium iodide (PI) staining solution (Yun et al., 2005) (50 μg/ml PI, 0.1% sodium citrate, 50 μg/ml RNase A, 0.03% NP-40 in PBS). Flow cytometry analysis was performed using a FACScalibur flow cytometer and cell cycle distribution was analyzed with CellQuest software (Beckton Dickison). 10,000 events were analyzed for each sample and the experiment was repeated twice.
# [2] = tested on: MCF-7 breast cancer cells; assay: Survival of cells under combination with chemotherapeutic agents or irradiation
# Procedure: It is therefore likely that combination of IBR2 with other chemotherapeutic agents may have synergistic effects. To test this possibility, survival of MCF-7 breast cancer cells treated with 8 μM IBR2 plus different doses of VP-16, taxol, camptothecin, or gamma-irradiation was measured. […] Thus, it should be appreciated that a combination of IBR2 with other conventional therapeutic agents may have potential clinical applications in treating various cancers.
# To perform clonogenic survival assay, 1.5×10^3 MCF-7 cells were seeded in 10-cm dishes for 24 hours. Cells were then treated, in triplicate, with 5 μM IBR2 for 12 hours and then g-irradiated. Cells were continuously exposed to 5 μM IBR2 and re-fed every 4 days with fresh medium and IBR2. After 14-16 days, cells were fixed and stained with 2% methylene blue. Colonies consisting of more than 50 cells were counted.
# [3] = tested on: MCF-7 cells; assay: Western blot of protein levels; conditions: 20 mM IBR2, time dependent
# Source text: To examine the impact of IBR2 on Rad51 protein expression, IBR2 treated MCF-7 cells was examined by straight western blot probed with a panel of antibodies against BRCA2, Rad51, Rad50, p84 and Rb. […] Consistent with our FACS analysis (FIG. 4A), the hypo-phosphorylated form of Rb, a marker for G1 phase, was the major form observed in the later time points, further confirming that IBR2 arrests cells at G1 phase (FIG. 4A). It has been reported that BRCA2 level is cell cycle dependent, which expresses low in G1 phase and peaks at G1/S boundary. Therefore the decreased level of BRCA2 in IBR2 treated cells may be due to G1 phase arrest. Different from BRCA2 protein, Rad51 protein is expressed constant throughout the cell cycle in MCF-7 cells (data not shown). Therefore, loss of Rad51 protein may be the direct effect of IBR2 treatment instead of the consequence of G1 arrest. To test whether IBR2 decreases Rad51 levels by destabilization, the inventors performed a stability assay by adding cyclohexamide (CHX) to inhibit de novo protein synthesis. […] Therefore, the inventors contemplate that IBR2 treated MCF-7 cells were arrested at G1, blocked at M phase entry, and died at S/G2 phase.
# Western blot analysis: Cells were treated with 20 mM IBR2 or 50 μg/ml cycloheximide (CHX) or 1 μM MG132 and harvested at different time points for western blot analysis. Cells resuspended in Lysis 250 buffer were subjected to three freeze/thaw cycles (liquid nitrogen/37° C.) and then centrifuged at 14,000 rpm for 2 minutes at room temperature. After measuring protein concentration, equal amount of total cellular proteins were subjected to SDS-PAGE and immunoblot analyses were performed as described previously (Chen et al., 1999). Antibodies used were: Rad51 (rabbit 5952); BRCA2 (rabbit PC146, Oncogene); Rb (mAb 11D7); Rad50 (mAb 13B3) and p84 (mAb 5E10). The intensity of bands was quantified by densitometry using Labworks 4.5 software. The relative value of the band intensity was calculated with respect to that of untreated sample after normalization with the p84 signal.
compound,measurement,setting,value
"O=S(=O)(Cc1ccccc1)N1C=Cc2ccccc2C1c1c[nH]c2ccccc12 (centres unmarked) [IBR2, 2-(benzylsulfonyl)-1-(1H-indol-3-yl)-1,2-dihydroisoquinoline]",G1 fraction,[1],increased
same,S and G2/M fractions,[1],depleted
same,sub-G1 fraction (apoptotic cells),[1],significantly increased
same,synergy with VP-16 on cell survival,[2]; 8 μM IBR2 plus different doses of VP-16,Significant synergistic effects
same,synergy with camptothecin on cell survival,[2]; 8 μM IBR2 plus different doses of camptothecin,Significant synergistic effects
same,synergy with gamma-irradiation on clonogenic survival,[2]; 8 μM IBR2 plus different doses of gamma-irradiation,Significant synergistic effects
same,synergy with taxol on cell survival,[2]; 8 μM IBR2 plus different doses of taxol,Significant synergistic effects
same,BRCA2 protein level,[3],decreased dramatically
same,Rad50 protein level,[3],remained constant
same,Rad51 protein level,[3],decreased dramatically
same,p84 protein level,[3],remained constant
